Target: T1, human GOAT (Homo sapiens, UniProt Q96T53)
T1 construct: His; made in house; host or cells: Sf9 insect cells (baculovirus, pAN51 vector); microsomal membrane preparation
T1 sequence (Q96T53 1-435): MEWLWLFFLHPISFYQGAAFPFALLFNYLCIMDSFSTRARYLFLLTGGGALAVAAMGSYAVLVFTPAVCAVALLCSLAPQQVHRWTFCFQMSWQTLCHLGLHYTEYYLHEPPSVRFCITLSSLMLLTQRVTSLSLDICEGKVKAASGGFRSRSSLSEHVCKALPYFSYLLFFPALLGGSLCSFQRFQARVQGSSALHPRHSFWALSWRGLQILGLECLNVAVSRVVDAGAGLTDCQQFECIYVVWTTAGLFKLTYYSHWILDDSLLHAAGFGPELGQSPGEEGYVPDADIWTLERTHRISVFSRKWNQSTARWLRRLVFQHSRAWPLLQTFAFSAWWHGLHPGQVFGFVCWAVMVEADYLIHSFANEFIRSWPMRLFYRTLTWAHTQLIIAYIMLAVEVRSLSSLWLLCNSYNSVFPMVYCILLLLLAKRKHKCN
Test: In vitro cell free human GOAT enzymatic assay
Type: biochemical
Settings: GOAT-His/sf9 membrane preparation
Procedure: Human GOAT gene (Accession number: NM_001100916) is subcloned to pAN51 baculoviral expression vector. Baculovirus stock is prepared following the Bac-to-Bac Protocol provided by the vendor, Invitrogen, California, USA. Five mililiters of human GOAT baculoviral stock are added to 500 mL Sf9 cells in HyQ SFX-Insect™ media (HyClone catalog number SH30278.02) at the density of 1 × 10^6 cells per milliliter in a 2 L Erlenmeyer flask. The flask with human GOAT gene infected Sf9 cells is put on a plate shaker at 120 rpm at 28 °C for 48 hours. After 48 hours incubation, cells are centrifuged at 1,000xg for 10 min at 4 °C. The cell pellets are collected and stored at -80 °C in a freezer until ready for further processing.
One gram cell pellets are suspended in 9 mL chilled homogenization buffer (50 mM Tris-HCl, 250 mM sucrose, adjusted to pH 7.5 and sterile filtered through 0.2 µm Millipore filter). The cell suspension is transferred to a Dounce glass homogenizer. Cell pellets are homogenized with 40 strokes on ice. The homogenate is centrifuged at 3,000 rpm in a Beckman swing bucket rotor at 4 °C for 10 min to remove unbroken cells. The supernatant is collected and centrifuged at 40,000 xg for 1 hour at 4 °C. The resulting membrane pellet is suspended in the homogenization buffer using a Dounce glass homogenizer and stored at -20 °C in the freezer for the assay. For long term storage of the human GOAT enzyme membrane preparation, the suspended membrane is stored in a -80 °C freezer.
Prepare test compounds in DMSO to make up a 0.2 mM stock solution. Serially dilute the stock solution in DMSO to obtain a ten-point dilution curve with final compound concentrations ranging from 10 µM to 0.5 nM in a 96-well round-bottom plate. Prepare enzyme and substrate solutions in assay buffer (0.02% TWEEN™-20 in 50 mM Tris, pH 7.5/250 mM sucrose/1 mg/mL BSA/10 mM EDTA). Add diluted compound (1 µL) to each well of row A to N of a corresponding low protein binding 384 well plate. Add human GOAT substrate mix (10 µL), consisting of human desacyl-ghrelin-biotin (CPC Scientific Inc., 6.0 µM final), octanoyl-coenzyme A (CoA) (Sigma, 60 µM final) and an AG specific antibody (WO 2006/091381)(1.0 µg/mL final), to the compounds. Add GOAT-His/sf9 enzyme preparation, that has been prepared in assay buffer (9 µL), to each well of the plate containing substrate and test compounds resulting in a final concentration of 0.01 µg/mL to initiate the reaction. Incubate the mixture for 1 hour at RT on a gently rotating oscillator. Add 4M guanidine hydrochloride (20 µL) to all wells, mix, and incubate for 3 hours to stop the reaction.
Prepare ELISA plates (STREPTAVIDIN SPECTRAPLATE™ 384, Perkin Elmer) by blocking with 2% Heat-Inactivated FBS in PBS (40 µL) (Invitrogen) blocking buffer for 3 hours. Aspirate the blocking buffer from ELISA plate and add blocking buffer (23 µL) to columns 1-24, rows A-N. Reserve rows O and P for the acylghrelin standard curve. Add the reaction mix (2 µL) to the ELISA plates. Prepare a 10 point standard curve (biotin-labeled octanoyl-ghrelin) by serial 2X dilution in blocking buffer containing 0.2M Guanidine hydrochloride starting at 2.5 pM. Incubate the reaction mixture or biotin-labeled AG standard in the ELISA plate overnight at 4 °C. The following day, wash the plate 3× with wash buffer (0.1% TWEEN™-20/PBS, 100 µL per well in each wash cycle). […] Read plates at 450 nm using an ENVISION® Multilabel plate reader. […]

| IC20 [nM] | Structure (SMILES) |
| --- | --- |
| 55.7 | Cc1nc(C(F)(F)F)nc(N)c1CCC1CCN(C(=O)[C@H](C)NC(=O)c2nccnc2Cl)CC1 [Example 15, N-[(1S)-2-[4-[2-[4-Amino-6-methyl-2-(trifluoromethyl)pyrimidin-5-yl]ethyl]-1-piperidyl]-1-methyl-2-oxo-ethyl]-3-chloro-pyrazine-2-carboxamide] |
| 420 | COc1ccccc1C(=O)N[C@@H](C)C(=O)N1CCC(CCc2c(C)nc(C(F)(F)F)nc2N)CC1 [Example 17, N-[(1S)-2-[4-[2-[4-Amino-6-methyl-2-(trifluoromethyl)pyrimidin-5-yl]ethyl]-1-piperidyl]-1-methyl-2-oxo-ethyl]-2-methoxy-benzamide] |
| 276 | Cc1nc(C(F)(F)F)nc(N)c1CCC1CCN(C(=O)[C@H](C)NC(=O)CO)CC1 [Example 18, N-[(1S)-2-[4-[2-[4-Amino-6-methyl-2-(trifluoromethyl)pyrimidin-5-yl]ethyl]-1-piperidyl]-1-methyl-2-oxo-ethyl]-2-hydroxy-acetamide] |
| 615 | COC(=O)N[C@@H](C)C(=O)N1CCC(CCc2c(C)nc(C(F)(F)F)nc2N)CC1 [Example 20, Methyl N-[(1S)-2-[4-[2-[4-amino-6-methyl-2-(trifluoromethyl)pyrimidin-5-yl]ethyl]-1-pipaidyl]-1-methyl-2-oxo-ethyl]carbamate] |

— EP3283473B1, “GHRELIN O-ACYL TRANSFERASE INHIBITORS” (Eli Lilly and Company, priority 2015, dated 2016)
